GI50 and TGI data for nine molecules are collected here from PubChem BioAssay (NCI).

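Five concentrations, 48 hours, 96-well plates. GI50 marks 50% less growth. TGI: concentration producing complete growth inhibition.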

Test systems include HCT-15 colon; HOP-62 NSCLC; HOP-92 NSCLC; NCI-H522 lung; OVCAR-3 ovarian; RXF 393 renal; SF-539 CNS; SW-620 colon; TK-10 renal; U251 CNS.
Common to all, as to assay: NCI-60 cell line screen, 48 h

As for `C[C@]12CC/C(=N\N)C[C@@H]1CC[C@@H]1[C@@H]2CC[C@]2(C)/C(=N/N)CC[C@@H]12`, the GI50 in the assay with HCT-15 colon, in the assay with HOP-62 NSCLC, in the assay with HOP-92 NSCLC, in the assay with NCI-H522 lung, with OVCAR-3 ovarian and with RXF 393 renal was above 100 µM throughout. In addition, the GI50 in the assay on SF-539 CNS, in the assay on SW-620 colon, with TK-10 renal and in the assay with U251 CNS was above 100 µM throughout. In addition, the TGI in the assay on HCT-15 colon, with HOP-62 NSCLC, in the assay with HOP-92 NSCLC, with NCI-H522 lung, in the assay on OVCAR-3 ovarian and in the assay with RXF 393 renal was above 100 µM throughout. In addition, the TGI in the assay on SF-539 CNS, in the assay with SW-620 colon, with TK-10 renal and in the assay on U251 CNS was above 100 µM each time.
For `CCOC(=O)c1cc2c(n1Cc1cc(OC)cc(OC)c1)-c1oncc1CCC2`, the GI50 was 0.0678 µM in the assay with HCT-15 colon; 0.242 µM in the assay with HOP-62 NSCLC; 0.0858 µM with HOP-92 NSCLC; 0.0194 µM with NCI-H522 lung; 0.0274 µM in the assay on OVCAR-3 ovarian; 0.0987 µM in the assay with RXF 393 renal. The figures for the GI50 in the assay on SF-539 CNS, in the assay with SW-620 colon and in the assay on U251 CNS were 0.0495 µM, 0.0784 µM and 0.255 µM, respectively. Further, the TGI in the assay on HCT-15 colon is above 100 µM; in the assay on HOP-62 NSCLC, above 100 µM; in the assay on HOP-92 NSCLC, 7.37 µM; in the assay on NCI-H522 lung, 0.0682 µM; in the assay on OVCAR-3 ovarian, 0.0889 µM; in the assay with RXF 393 renal, above 100 µM. The TGI with SF-539 CNS is 0.203 µM; in the assay with SW-620 colon, above 100 µM; in the assay on TK-10 renal, above 100 µM; in the assay with U251 CNS it was above 100 µM.
Take `COc1ccc(Nc2ccnc(NCCNc3ccnc4cc(Cl)ccc34)n2)cc1`: the GI50 in the assay on HCT-15 colon was 1.23 µM; with HOP-62 NSCLC it was 3.56 µM; in the assay on HOP-92 NSCLC, 1 µM; with NCI-H522 lung, 2.38 µM; in the assay with OVCAR-3 ovarian, 2.61 µM; with RXF 393 renal, 1.39 µM. The GI50 with SF-539 CNS was 1.59 µM; in the assay on SW-620 colon it was 1.6 µM; with TK-10 renal, 3.33 µM; in the assay on U251 CNS, 1.69 µM. In addition, the TGI came out at 4.03 µM in the assay on HCT-15 colon; 18.4 µM with HOP-62 NSCLC; 6.34 µM in the assay with HOP-92 NSCLC; 7.8 µM with NCI-H522 lung; 10.3 µM in the assay on OVCAR-3 ovarian; 3.41 µM in the assay on RXF 393 renal. Besides, the TGI was determined as 3.2 µM with SF-539 CNS, 10.2 µM in the assay on SW-620 colon, 10.5 µM with TK-10 renal and 5.22 µM with U251 CNS.
With `CC/C=C\C/C=C\C[C@H](O)C/C=C1/C(=O)C=C[C@H]1C/C=C\CCC(=O)OC`, the GI50 with HCT-15 colon was 1.85 µM; in the assay on HOP-62 NSCLC, 3.17 µM; in the assay on HOP-92 NSCLC it was above 8.25 µM; with NCI-H522 lung, 1.39 µM; in the assay with OVCAR-3 ovarian it was 2.08 µM; in the assay on RXF 393 renal, 4.99 µM. For the same molecule, the GI50 is 2.82 µM in the assay with SF-539 CNS, 2.19 µM in the assay on SW-620 colon, above 8.25 µM in the assay on TK-10 renal and 2.66 µM in the assay on U251 CNS. In addition, the TGI with HCT-15 colon was 6.47 µM; with HOP-62 NSCLC, above 8.25 µM; with HOP-92 NSCLC, above 8.25 µM; with NCI-H522 lung it was 3.42 µM; in the assay with OVCAR-3 ovarian, 7.71 µM; in the assay with RXF 393 renal it was above 8.25 µM. Moreover, the TGI in the assay with SF-539 CNS, in the assay with SW-620 colon, in the assay on TK-10 renal and with U251 CNS was above 8.25 µM each time.
Take `COc1cc([C@@H]2c3cc4c(cc3C(Br)[C@H]3COC(=O)[C@H]23)OCO4)cc(OC)c1OC` (stereo partly drawn): the GI50 in the assay with HCT-15 colon is 0.253 µM; in the assay on HOP-62 NSCLC it was 0.436 µM; in the assay with HOP-92 NSCLC, 0.529 µM; in the assay on NCI-H522 lung it was 0.072 µM; with OVCAR-3 ovarian it was 0.213 µM; in the assay on RXF 393 renal it was 0.0815 µM. Moreover, the GI50 with SF-539 CNS was 0.185 µM; in the assay with SW-620 colon it was 0.194 µM; in the assay with U251 CNS, 0.296 µM. For the same molecule, the TGI in the assay on HCT-15 colon is above 100 µM; with HOP-62 NSCLC, above 100 µM; in the assay on HOP-92 NSCLC, above 30.1 µM; in the assay on NCI-H522 lung, 0.389 µM; in the assay with OVCAR-3 ovarian, 0.559 µM; in the assay on RXF 393 renal it was 6.48 µM. In addition, the TGI with SF-539 CNS was 0.598 µM; with SW-620 colon, above 100 µM; with TK-10 renal it was above 100 µM; in the assay with U251 CNS it was above 81.2 µM.
With `CCN(CC)c1ccc(N=C2C=C(C(=O)Nc3ccc(S(C)(=O)=O)cc3)C(=O)c3ccccc32)c(C)c1`, the GI50 with HCT-15 colon is 5.28 µM; in the assay with HOP-62 NSCLC, 91.7 µM; in the assay on HOP-92 NSCLC, above 100 µM; in the assay with NCI-H522 lung, 16.7 µM; in the assay with OVCAR-3 ovarian it was 3.78 µM; in the assay on RXF 393 renal, above 100 µM. The GI50 was 1.07 µM in the assay with SF-539 CNS, above 100 µM with SW-620 colon, above 100 µM in the assay with TK-10 renal and 4.69 µM in the assay on U251 CNS. Moreover, the TGI with HCT-15 colon, in the assay with HOP-62 NSCLC, in the assay on HOP-92 NSCLC, with NCI-H522 lung, in the assay on OVCAR-3 ovarian and in the assay on RXF 393 renal was above 100 µM throughout. In addition, the TGI in the assay with SF-539 CNS, in the assay with SW-620 colon, with TK-10 renal and in the assay on U251 CNS was above 100 µM in each case.
In the case of `Cc1ccccc1S(=O)(=O)N1[C@H](c2ccc(Cl)cc2)C(C(=O)N[C@@H](Cc2ccccc2)C(N)=O)=C[C@@H]1C(C)(C)C`, the GI50 with HCT-15 colon was 2.38 µM; in the assay on HOP-62 NSCLC, 7.75 µM; in the assay on HOP-92 NSCLC it was 7.24 µM; in the assay on NCI-H522 lung, 7.92 µM; in the assay with OVCAR-3 ovarian it was 6.12 µM; in the assay on RXF 393 renal it was 5.01 µM. In addition, the GI50 in the assay with SF-539 CNS is 6.61 µM; in the assay on SW-620 colon, 7.76 µM; in the assay with TK-10 renal, 9.43 µM; in the assay with U251 CNS, 5.28 µM. The TGI in the assay on HCT-15 colon came to 9.5 µM; in the assay with HOP-62 NSCLC, 15.1 µM; with HOP-92 NSCLC, 17.4 µM; with NCI-H522 lung, 15.6 µM; in the assay with OVCAR-3 ovarian it was 14 µM; with RXF 393 renal, 11.9 µM. The TGI with SF-539 CNS is 13.4 µM; with SW-620 colon it was 19.8 µM; with TK-10 renal, 19.1 µM; in the assay with U251 CNS it was 12.1 µM.
In the case of `O=[N+]([O-])c1cc(O)c(O)cc1-c1cn2ccsc2n1`, the GI50 in the assay on HCT-15 colon was 38.5 µM; in the assay on HOP-62 NSCLC, 36.1 µM; in the assay with HOP-92 NSCLC, 97.2 µM; in the assay on NCI-H522 lung, 33 µM; with OVCAR-3 ovarian, 23.6 µM; in the assay with RXF 393 renal it was above 100 µM. Further, the GI50 was 71.1 µM with SF-539 CNS, 45.6 µM in the assay on SW-620 colon, 66.5 µM in the assay with TK-10 renal and 77.1 µM with U251 CNS. Moreover, the TGI with HCT-15 colon is above 100 µM; in the assay with HOP-62 NSCLC, above 100 µM; in the assay on HOP-92 NSCLC, above 100 µM; with NCI-H522 lung it was above 100 µM; in the assay on OVCAR-3 ovarian, 64 µM; with RXF 393 renal, above 100 µM. The TGI in the assay with SF-539 CNS, with SW-620 colon, in the assay on TK-10 renal and in the assay on U251 CNS was above 100 µM throughout.
With `C=C(C)C(=O)OC1CC2(C)OC2CC(OC(C)=O)/C(C)=C/C2OC(=O)C(=C)C21` (stereo not drawn), the TGI with HCT-15 colon was determined as 1.86 µM; with HOP-62 NSCLC, 26.5 µM; in the assay on HOP-92 NSCLC it was 12.5 µM; in the assay with NCI-H522 lung, 0.851 µM; with OVCAR-3 ovarian, 7.96 µM; with RXF 393 renal, 4.64 µM. The TGI turned out to be 8.57 µM in the assay with SF-539 CNS, 6.98 µM in the assay on SW-620 colon, 14.1 µM in the assay on TK-10 renal and 25.1 µM in the assay on U251 CNS.
